Columns and labels:
mRNA for gamma-globin [1] = assay: Quantitative RT-PCR of mRNA for gamma-globin in human erythroid precursors isolated from peripheral blood (two-stage culture of Fibach et al.); type: cell-based; details: for mRNA for gamma-globin (increase compared with untreated control erythroid precursors): rapamycin 3 μM, hydroxyurea 120 μM, control = 1
Text: In order to check whether rapamycin was capable, in addition to inducing K562 cell differentiation, of stimulating the production of mRNA for gamma-globin in human erythroid precursors isolated from peripheral blood, the technique published by Fibach et al. (19, 20) was used. This technique provides for two stages: in the first stage, the cells isolated from peripheral blood of a subject who is healthy or suffering from a haemopoietic pathology, such as sickle cell anaemia or beta-thalassaemia, are sown in a culture medium to which 10% of conditioned medium derived from the vesicle carcinoma cell line 5637 has been added. The second stage consists in cultivating the isolated cells in a suitable culture medium, supplemented by the erythropoietin hormone, 30% foetal bovine serum, 2-mercaptoethanol, albumin, glutamine and desamethasone in order to permit the proliferation and maturing of stem cells of the erythroid type. In this stage the cells can be treated with potential HbF inducers.

mRNA for gamma-globin [2] = assay: Quantitative RT-PCR of mRNA for gamma-globin in K562 cells; type: cell-based, human; details: 20 nM, 6 days of induction, control = 1
Procedure: (§1) The level of differentiation was evaluated by analysing the positive reaction of the cells to benzidine (3). […] The production of haemoglobin was evaluated by electrophoresis on cellulose acetate and by staining the gel with a solution based on benzidine/H2O2 (3). […] The expression of genes coding for gamma-globins was evaluated by quantitative RT-PCR (reverse transcriptase PCR) (3).

human cell line K562 [3] = assay: Haemoglobin production in K562 cells by electrophoresis on cellulose acetate and benzidine/H2O2 staining; type: cell-based; details: K562 cells treated with rapamycin
Procedure: as §1

human cell cultures = assay: Cytotoxic effect in human cell cultures; type: cell-based; details: compared with hydroxyurea
Procedure: The activity of rapamycin as an inducer of erythroid cell differentiation and the production of mRNA for gamma-globin was evaluated in human cell cultures. The results of this study are illustrated in the Tables given in the section relating to the Examples.

human cell line K562 [4] = assay: Erythroid differentiation of K562 cells (benzidine-positive cells); details: 20 nM, mean ± SD of 6 experiments, control 4.1%
Procedure: as §1

SMILES | mRNA for gamma-globin (increase compared with untreated control erythroid precursors) (mRNA for gamma-globin [1]) | mRNA for gamma-globin (increase compared with untreated control K562 cells) (mRNA for gamma-globin [2]) | Chief haemoglobin produced (human cell line K562 [3]) | Increase in the production of mRNA for gamma-globin compared with the same untreated cells (mRNA for gamma-globin [1]) | Cytotoxic effect (human cell cultures) | Erythroid differentiation = percentage of K562 cells that react positively to benzidine (human cell line K562 [4]) | Erythroid differentiation = percentage of K562 cells that react positively to benzidine (human cell line K562 [4]; listed as rapamycin)
NC(=O)NO [Hydroxyurea, hydroxyurea] | 2.25 |  |  |  |  |  | 
CO[C@H]1C[C@@H]2CC[C@@H](C)[C@@](O)(O2)C(=O)C(=O)N2CCCC[C@H]2C(=O)O[C@H]([C@H](C)C[C@@H]2CC[C@@H](O)[C@H](OC)C2)CC(=O)[C@H](C)/C=C(\C)[C@@H](O)[C@@H](OC)C(=O)[C@H](C)C[C@H](C)/C=C/C=C/C=C/1C [Rapamycin, rapamycin] | 3.73 | 2.4 | Hb Portland (alpha2gamma2) | 3.75 times | much lower than that of hydroxyurea | 45.5 ± 5.8% | 40-45%

— patent publication US7541380B2, “Use of rapamycin and structural analogues thereof” (Universita' Degli Studi do Ferrara, priority 2002, dated 2009)
